# Laboratory results reported in patent USRE46511E1, “Fused pyrimidine derivatives for inhibition of tyrosine kinase activity” (HANMI SCIENCE CO., LTD., priority 2010, dated 2017).
# Where two headings read alike, the source gives them in different places.
# Assays:
# Assay type in all cases: cell-based
# [1] = system: HCC827 (EGFR DelE746_A750); assay: Inhibition test for growth of cancer cell expressing EGFR (SRB), HCC827; conditions: Homo sapiens, HCC827, 72 h, read-out: GI50 HCC827 EGFR DelE746_A750;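 further: cells in 96-well plates exposed to tenfold serial dilutions from 100 µM, fixed with trichloroacetic acid, SRB-stained, absorbance read at 540 nm, DMSO under 1%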
# Method: A431 cell line was incubated in a high-glucose DMEM (Dulbecco's Modified Eagle's Medium) supplemented with 10% fetal bovine serum (FBS) and 1% penicillin/streptomycin (Gibco BRL), and HCC827 and NCI-H1975 cell lines were incubated in an RPMI medium supplemented with 10% FBS, 1% penicillin/streptomycin and 1% sodium pyruvate.
# The cancer cell lines stored in a liquid nitrogen tank were each quickly thawed at 37° C., and centrifuged to remove the medium. The resulting cell pellet was mixed with a culture medium, incubated in a culture flask at 37° C. under 5% CO2 for 2 to 3 days, and the medium was removed. The remaining cells were washed with DPBS (Dulbecco's Phosphate Buffered Saline) and separated from the flask by using Tripsin-EDTA. […] 100 μl of the diluted cell solution was added to each well of a 96-well plate, and incubated at 37° C. under 5% CO2 for 1 day.
# In case that the test compound was not soluble in DMSO, 1% HCl was added thereto and treated in a 40° C. water bath for 30 mins until a complete dissolution was attained. The DMSO solution containing test compound was diluted with a culture medium to a final concentration of 100 μM, and then diluted 10 times serially to 10^−6 μM (a final concentration of DMSO was less than 1%).
# The medium was removed from each well of the 96-well plate. And then, 100 μl of a test compound solution was added to each well holding the cultured cells, and the plate was incubated at 37° C. under 5% CO2 for 72 hours (except that NCI-H1975 cells were incubated for 48 hours). After removing the medium from the plate, 50 μA of 10% trichloroacetic acid was added to each well, and the plate was kept at 4° C. for 1 hour to fix the cells to the bottom of the plate. The added 10% trichloroacetic acid solution was removed from each well, the plate was dried, 100 μA of an SRB (Sulforhodamine-B) dye solution at a concentration of 0.4% dissolved in 1% acetic acid was added thereto, and the resulting mixture was reacted for 10 mins at room temperature. After removing the dye solution, the plate was washed with water, and well dried. When the dye solution was not effectively removed by water, 1% acetic acid was used. 150 μA of 10 mM trisma base was added to each well, and the absorbance at 540 nm wavelength was determined with a microplate reader.
# [2] = system: NCI-H1975 (EGFR L858R/T790M); assay: Inhibition test for growth of cancer cell expressing EGFR (MTS), NCI-H1975; conditions: Homo sapiens, read-out: GI50 NCI-H1975 EGFR L858R/T790M
# [3] = system: A431 (EGFR WT); assay: Inhibition test for growth of cancer cell expressing EGFR (SRB), A431; conditions: Homo sapiens, read-out: GI50 A431 EGFR WT;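 further: cells in 96-well plates exposed to tenfold serial dilutions from 100 µM down to 10^−6 µM, DMSO under 1%, SRB staining read as absorbance at 540 nm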
# [4] = A-431, A431 cells, 72 hours, SRB
SMILES,"GI50 ([1]; HCC827 cells, 72 hours, SRB) [nM]","GI50 ([2]; NCI-H1975 cells, 48 hours, MTS) [nM]","GI50 [3, 4] [nM]",GI50 [1] [nM],"GI50 ([2]; NCI-H1975, 48 h) [nM]","GI50 ([3]; A-431, 72 h) [nM]"
C=CC(=O)Nc1cccc(Oc2nc(Nc3ccc(CP(=O)(OC)OC)cc3)nc3ccsc23)c1 [Example 189],,,,< 50,< 50,> 1000
C=CC(=O)Nc1cccc(Oc2nc(Nc3ccc(N4CCN(C)CC4)cc3F)nc3ccsc23)c1 [Example 4],50 to 100,50 to 100,> 1000,,,
C=CC(=O)Nc1cccc(Oc2nc(Nc3ccc(C4CCN(C(C)C)CC4)cc3)nc3ccsc23)c1 [Example 54],< 50,< 50,> 1000,,,
C=CC(=O)Nc1cccc(Oc2nc(Nc3ccc(N4CCN(S(C)(=O)=O)CC4)cc3)nc3ccsc23)c1 [Example 23],50 to 100,< 50,> 1000,,,
C=CC(=O)Nc1cccc(Oc2nc(Nc3ccc4c(c3)NCCOC4)nc3ccsc23)c1 [Example 107],< 50,< 50,> 1000,,,
C=CC(=O)Nc1cccc(Oc2nc(Nc3ccc(N4CCN(S(C)(=O)=O)CC4)c(F)c3)nc3ccsc23)c1 [Example 120],< 50,< 50,> 1000,,,
C=CC(=O)Nc1cccc(Oc2nc(Nc3ccc4c(c3)CCN4C(=O)CN(C)C)nc3ccsc23)c1 [Example 109],< 50,< 50,> 1000,,,
C=CC(=O)Nc1cccc(Oc2nc(Nc3ccc(CCN4CCN(S(=O)(=O)C=C)CC4)cc3)nc3ccsc23)c1 [Example 100],< 50,< 50,> 1000,,,
"CS(=O)(=O)CCNCc1ccc(-c2ccc3ncnc(Nc4ccc(OCc5cccc(F)c5)c(Cl)c4)c3c2)o1 [Lapatinib, lapatinib, reference compound]",,,,100 to 1000,> 1000,50 to 100
C=CC(=O)Nc1cccc(Oc2nc(Nc3ccc(N4CCCCC4)cc3)nc3ccsc23)c1 [Example 37],100 to 1000,< 50,> 1000,,,
C=CC(=O)Nc1cccc(Oc2nc(Nc3ccc(OCCN4CCOCC4)cc3)nc3ccsc23)c1 [Example 65],< 50,< 50,> 1000,,,
C=CC(=O)Nc1cccc(Oc2nc(Nc3ccc(N4CC[S+]([O-])CC4)cc3)nc3ccsc23)c1 [Example 31],< 50,< 50,> 1000,,,
C=CC(=O)Nc1cccc(Oc2nc(Nc3ccc(N4CCN(S(=O)(=O)CC)CC4)cc3)nc3ccsc23)c1 [Example 24],< 50,50 to 100,> 1000,,,
C=CC(=O)Nc1cccc(Oc2nc(Nc3ccc(N4CCSCC4)cc3)nc3ccsc23)c1 [Example 30],100 to 1000,< 50,> 1000,,,
C=CC(=O)Nc1cccc(Oc2nc(Nc3ccc(C(=O)NCCN4CCCC4)cc3)nc3ccsc23)c1 [Example 80],< 50,< 50,> 1000,,,
C=CC(=O)Nc1cccc(Oc2nc(Nc3ccc(N4CCN(CC)CC4)cc3)nc3ccsc23)c1 [Example 10],< 50,< 50,100 to 1000,,,
C=CC(=O)Nc1cccc(Oc2nc(Nc3ccc(S(=O)(=O)N4CCN(CC)CC4)cc3)nc3ccsc23)c1 [Example 76],< 50,50 to 100,> 1000,,,

SMILES,"GI50 ([1]; HCC827 cells, 72 hours, SRB) [nM]","GI50 ([2]; NCI-H1975 cells, 48 hours, MTS) [nM]","GI50 [3, 4] [nM]",GI50 [1] [nM],"GI50 ([2]; NCI-H1975, 48 h) [nM]","GI50 ([3]; A-431, 72 h) [nM]"
C=CC(=O)Nc1cccc(Oc2nc(Nc3ccc(N4CCN(C)CC4)c(C)c3)nc3ccsc23)c1 [Example 8],< 50,< 50,> 1000,,,
C=CC(=O)Nc1cccc(Oc2nc(Nc3ccc(C4CCN(C)CC4)cc3)nc3ccsc23)c1 [Example 52],< 50,< 50,> 1000,,,
C=CC(=O)Nc1cccc(Oc2nc(Nc3ccc(C(=O)N4CCN(CC)CC4)cc3)nc3ccsc23)c1 [Example 90],< 50,< 50,> 1000,,,
C=CC(=O)Nc1cccc(Oc2nc(Nc3ccc(N4CCN(C5CCN(C)CC5)CC4)cc3)nc3ccsc23)c1 [Example 26],< 50,< 50,> 1000,,,
C=CC(=O)Nc1cccc(Oc2nc(Nc3ccc(N4CCN(CC)CC4)cc3OC)nc3ccsc23)c1 [Example 112],< 50,< 50,> 1000,,,
C=CC(=O)Nc1cccc(Oc2nc(Nc3ccc(N4CCN(C5CCCCC5)CC4)cc3)nc3ccsc23)c1 [Example 13],< 50,< 50,100 to 1000,,,
C=CC(=O)Nc1cccc(Oc2nc(Nc3ccc(-n4ccnc4)cc3)nc3ccsc23)c1 [Example 56],50 to 100,< 50,,,,
C=CC(=O)Nc1cccc(Oc2nc(Nc3ccc(O)cc3)nc3ccsc23)c1 [Example 60],100 to 1000,100 to 1000,,,,
C=CC(=O)Nc1cccc(Oc2nc(Nc3ccc(C[S+](C)[O-])cc3)nc3ccsc23)c1 (stereo not drawn) [Example 94],< 50,< 50,> 1000,,,
C=CC(=O)Nc1cccc(Oc2nc(Nc3ccc(C(=O)NCCN4CCCC4)cc3OC)nc3ccsc23)c1 [Example 117],< 50,50 to 100,,,,
C=CC(=O)Nc1cccc(Oc2nc(Nc3ccc(N4CCC(N5CCCC5)CC4)c(F)c3)nc3ccsc23)c1 [Example 124],< 50,< 50,,,,
C=CC(=O)Nc1cccc(Oc2nc(Nc3ccc(NC(=O)CCN4CCCC4)cc3)nc3ccsc23)c1 [Example 92],< 50,< 50,,,,
C=CC(=O)Nc1cccc(Oc2nc(Nc3ccc(N4CCN(CCOC)CC4)cc3)nc3ccsc23)c1 [Example 17],< 50,< 50,,,,
C=CC(=O)Nc1cccc(Oc2nc(Nc3ccc(N4CCS(=O)(=O)CC4)cc3)nc3ccsc23)c1 [Example 32],< 50,< 50,> 1000,,,
C=CC(=O)Nc1cccc(Oc2nc(Nc3ccc(C(=O)NC)cc3)nc3ccsc23)c1 [Example 78],50 to 100,50 to 100,,,,
C=CC(=O)Nc1cccc(Oc2nc(Nc3ccc(C(=O)OCCCN(C)C)cc3)nc3ccsc23)c1 [Example 93],50 to 100,50 to 100,,,,

# Further lines, with some results ahead:
"GI50 ([1]; HCC827 cells, 72 hours, SRB) [nM]","GI50 ([2]; NCI-H1975 cells, 48 hours, MTS) [nM]","GI50 [3, 4] [nM]",SMILES,GI50 [1] [nM],"GI50 ([2]; NCI-H1975, 48 h) [nM]","GI50 ([3]; A-431, 72 h) [nM]"
< 50,< 50,> 1000,C=CC(=O)Nc1cccc(Oc2nc(Nc3ccc(C4CCCN(C)C4)c(F)c3)nc3ccsc23)c1 (stereo not drawn) [Example 128],,,
< 50,< 50,> 1000,C=CC(=O)Nc1cccc(Oc2nc(Nc3ccc(N4CCNCC4)c(Cl)c3)nc3ccsc23)c1 [Example 159],,,
< 50,< 50,> 1000,C=CC(=O)Nc1cccc(Oc2nc(Nc3ccc(N4CCN(CC)CC4)cn3)nc3ccsc23)c1 [Example 168],,,
< 50,< 50,> 1000,C=CC(=O)Nc1cccc(Oc2nc(Nc3ccc(CN4CCCCC4)cc3)nc3ccsc23)c1 [Example 178],,,
< 50,< 50,> 1000,C=CC(=O)Nc1cccc(Oc2nc(Nc3ccc(CN4CCN(CC5CC5)CC4)cc3)nc3ccsc23)c1 [Example 185],,,
< 50,< 50,> 1000,C=CC(=O)Nc1cccc(Oc2nc(Nc3ccc(C(C)N4CCN(CC)CC4)cc3)nc3ccsc23)c1 (stereo not drawn) [Example 184],,,
< 50,< 50,> 1000,C=CC(=O)Nc1cccc(Oc2nc(Nc3ccc(N4CCN(C)CC4)c(OC)c3)nc3ccoc23)c1 [Example 234],,,
< 50,< 50,> 1000,C=CC(=O)Nc1cccc(Oc2nc(Nc3ccc(CN4CCN(C5CCN(C)CC5)CC4)cc3)nc3ccsc23)c1 [Example 186],,,
< 50,< 50,> 1000,"C=CC(=O)Nc1cccc(Oc2nc(Nc3ccc(N4CCN(C)CC4)cn3)nc3ccsc23)c1 [Example 167, N-(3-(2-(5-(4-methylpiperazin-1-yl)piridin-2-ylamino)thieno[3,2-d]pyrimidin-4-yloxy)phenyl)acrylamide]",,,
< 50,50 to 100,> 1000,"C=CC(=O)Nc1ccc(F)c(Nc2nc(Nc3ccc(N4CCN(C)CC4)cc3)nc3ccsc23)c1 [Example 218, N-(4-fluoro-3-(2-(4-(4-methyl-piperazin-1-yl)-phenylamino)-thieno[3,2-d]pyrimidin-4-ylamino)-phenyl)-acrylamide]",,,
< 50,< 50,> 1000,C=CC(=O)Nc1ccc(F)c(Oc2nc(Nc3ccc(N4CCN(C)CC4)cc3)nc3ccsc23)c1 [Example 165],,,
< 50,100 to 1000,> 1000,"C=CC(=O)Nc1cccc(Oc2nc(Nc3ccc(N4CCNCC4)cc3)nc3ccsc23)c1 [Example 158, N-(3-(2-(4-(piperazin-1-yl)phenylamino)-thieno[3,2-d]pyrimidine-4-yloxy)-phenyl)-acrylamide]",,,
< 50,< 50,,C=CC(=O)Nc1cccc(Oc2nc(Nc3ccc(OCCN4CCN(C)CC4)c(F)c3)nc3ccsc23)c1 [Example 134],,,
< 50,< 50,,C=CC(=O)Nc1cccc(Oc2nc(Nc3ccc(N4CCC(N5CCOCC5)CC4)c(Cl)c3)nc3ccsc23)c1 [Example 139],,,
< 50,< 50,> 1000,C=CC(=O)Nc1cccc(Oc2nc(Nc3ccc(CN4CCCC4)cc3)nc3ccsc23)c1 [Example 176],,,
50 to 100,< 50,,C=CC(=O)Nc1cccc(Oc2nc(Nc3ccc(OCCN4CCOCC4)c(F)c3)nc3ccsc23)c1 [Example 135],,,
< 50,< 50,,C=CC(=O)Nc1cccc(Oc2nc(Nc3ccc(CN4CCN(C)CC4)c(F)c3)nc3ccsc23)c1 [Example 197],,,
